Reference: paper PMC12195967, “Cobalt(II) Complexes of 4′–Nitro–Fenamic Acid: Characterization and Biological Evaluation” (Molecules, 2025)

How the values were obtained:
[1] = molecular target: T1, human serum albumin (HSA) (Homo sapiens, UniProt P02768); assay: Competitive albumin-fluorescence studies with warfarin and ibuprofen; assay type: binding; settings: for K(HSA, ibuprofen): in the presence of ibuprofen; for K(HSA, warfarin): in the presence of warfarin
T1 construct: purchased Sigma-Aldrich Co
T1 sequence (P02768 25-609): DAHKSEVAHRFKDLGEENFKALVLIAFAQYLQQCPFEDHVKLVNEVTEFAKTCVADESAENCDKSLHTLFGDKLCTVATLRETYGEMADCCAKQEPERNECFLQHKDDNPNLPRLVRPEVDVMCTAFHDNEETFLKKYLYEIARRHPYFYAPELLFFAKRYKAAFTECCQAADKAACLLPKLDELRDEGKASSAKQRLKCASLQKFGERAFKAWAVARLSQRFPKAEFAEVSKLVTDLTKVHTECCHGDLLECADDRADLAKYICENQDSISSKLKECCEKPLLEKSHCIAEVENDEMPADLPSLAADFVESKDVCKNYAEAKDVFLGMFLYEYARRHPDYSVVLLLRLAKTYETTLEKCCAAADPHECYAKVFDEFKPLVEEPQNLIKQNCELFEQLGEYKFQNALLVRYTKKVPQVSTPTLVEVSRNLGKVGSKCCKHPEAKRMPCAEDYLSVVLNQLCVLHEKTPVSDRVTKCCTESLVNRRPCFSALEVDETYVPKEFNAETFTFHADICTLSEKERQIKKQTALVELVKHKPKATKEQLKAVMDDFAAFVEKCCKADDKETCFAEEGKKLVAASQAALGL
Source text: (§1) One of the primary functions of SAs is the transport of various compounds such as drugs, fatty acids and hormones. Albumins are composed of three domains, I, II and III, and each of them is subdivided into A and B subdomains that host compounds [90]. […] Site markers like warfarin and ibuprofen are used to identify in which albumin site a compound is bound, as these markers bind selectively to Sudlow’s sites I and II, respectively. The SA-binding site of the compounds was investigated by calculating the SA-binding constant for both HSA and BSA in the presence of ibuprofen or warfarin and comparing them with the values previously derived (in the absence of any marker).
(§2) Incremental addition of the compounds into a solution containing the SA (HSA or BSA) and the respective site marker (warfarin or ibuprofen) induced quenching of the initial fluorescence emission band (Figures S19–S22). The SA-binding constants for each compound in the presence of warfarin or ibuprofen were calculated with the Scatchard equation (Equation (S7)) and the corresponding plots (Figures S23–S26) and are compared with those calculated in the absence of any site marker to determine the preferable drug site. […]
(§3) From the Scatchard equation:
(§4) [Q] = nK − K Io (equation S7) where n is the number of binding sites per albumin and K is the albumin−binding constant (K, in M−1) is calculated from the slope in plots (ΔI/Io)/[compound] versus (ΔI/Io) and n is given by the ratio of y intercept to the slope.
(§5) S5.2 Competitive albumin−fluorescence studies with warfarin and ibuprofen The competitive studies with warfarin or ibuprofen (as site−markers) were performed by tryptophan fluorescence quenching experiments using a fixed concentration of the albumin and site markers (3 μM) in buffer (containing 15 mM trisodium citrate and 150 mM NaCl at pH 7.0). The fluorescence emission spectra were recorded in the presence of increasing amounts of the compounds as quenchers with an excitation wavelength of 295 nm. The Scatchard equation (equation S7) and plots were applied on the corrected albumin−fluorescence emission spectra to determine the albumin−binding constant of the compounds in the presence of warfarin or ibuprofen.

[2] = molecular target: T2, bovine serum albumin (BSA) (Bos taurus, UniProt P02769); assay: as above; assay type: binding; settings: for preferential BSA-binding site: from comparison of K with and without site markers; for K(BSA, ibuprofen): in the presence of ibuprofen; for K(BSA, warfarin): in the presence of warfarin
T2 construct: purchased Sigma-Aldrich Co
T2 sequence (P02769 25-607): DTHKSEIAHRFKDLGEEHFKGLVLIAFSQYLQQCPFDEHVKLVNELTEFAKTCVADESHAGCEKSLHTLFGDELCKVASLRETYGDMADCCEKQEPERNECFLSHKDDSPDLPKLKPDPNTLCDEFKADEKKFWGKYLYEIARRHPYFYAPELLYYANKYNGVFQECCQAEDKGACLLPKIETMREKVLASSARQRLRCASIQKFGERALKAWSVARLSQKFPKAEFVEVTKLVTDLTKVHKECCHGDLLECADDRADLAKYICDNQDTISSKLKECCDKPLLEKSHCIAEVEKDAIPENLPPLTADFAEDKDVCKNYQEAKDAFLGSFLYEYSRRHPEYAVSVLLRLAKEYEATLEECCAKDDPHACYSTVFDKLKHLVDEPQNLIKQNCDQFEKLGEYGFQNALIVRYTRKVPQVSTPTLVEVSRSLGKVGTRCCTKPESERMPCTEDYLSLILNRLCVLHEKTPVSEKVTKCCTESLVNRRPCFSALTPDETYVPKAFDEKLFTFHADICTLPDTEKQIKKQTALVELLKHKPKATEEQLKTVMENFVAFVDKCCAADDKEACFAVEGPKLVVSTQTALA
Source text: as §1, §2, §3, §4, §5

[3] = system: EB–DNA adduct (CT DNA); assay: EB-displacement (EB–DNA fluorescence quenching); assay type: binding, calf; settings: for relative EB–DNA fluorescence emission intensity (I/Io, %), final: % of the initial EB–DNA fluorescence remaining, λemission 594 nm; for percentage of EB–DNA fluorescence emission quenching (ΔI/I0, %): λexcitation 540 nm, emission 594 nm, buffer pH 7; for quenching constant Kq (EB–DNA): τ0 = 23 ns
Description: For the current study, the EB–DNA adduct was prepared in situ after 1-h pretreatment of EB (40 μΜ) and CT DNA (40 μΜ) in buffer solution (sodium chloride 150 mM and sodium citrate 15 mM at pH = 7).
Furthermore, the Stern–Volmer constants (KSV) that represent the ability of the compounds to induce quenching were calculated with the Stern–Volmer equation (Equation (S2)) and the corresponding Stern–Volmer plots […] vs. [Q] (Figure S8). […] The corresponding quenching constants (Kq) were calculated with Equation (S3) using the value of 23 ns as the fluorescence lifetime (τ0) of EB–DNA adduct.
S3.4 EB−displacement studies
The competition of the compounds with EB was investigated by fluorescence emission spectroscopy to examine whether the compounds can displace EB from its DNA−EB adduct. The CT DNA−EB complex was formed by pre−treating 40 μM EB and […] CT DNA in buffer (150 mM NaCl and 15 mM trisodium citrate at pH 7.0). The possible displacement of EB by the compound sand subsequently the intercalating effect was studied by the stepwise addition of a certain amount of the solution of each compound into the solution of the CT DNA−EB adduct. The solutions were excited at 540 nm and the emission was monitored from 550−700 nm with λmax = 592−594 nm and the effect of the addition of the compounds to the CT−DNA EB solution was recorded. […]
fluorescence emission bands at room temperature in solution or in the presence of CT DNA or EB under the same experimental conditions (λexcitation = 540 nm); therefore, the observed quenching of the EB−DNA solution may be attributed to the displacement of EB from its […]
The Stern−Volmer constants (KSV, in M−1) were calculated according to the linear Stern−Volmer equation (equation S2) and the respective plots Io/I versus [compound]:
Io = 1 + K τ [Q] = 1 + K [Q] (equation S2) […]
where Io and I are the emission intensities of the EB−DNA solution in the absence and the presence of the compound, respectively, τo = the average lifetime of the emitting system without the quencher and kq = the quenching constant. Taking τo = 23 ns as the fluorescence lifetime of the EB−DNA adduct, the quenching constant of the compound (Kq, in M−1s−1) was calculated according to equation [6]: […]

SMILES	K(HSA, ibuprofen) [1]	K(HSA, warfarin) [1]	preferential BSA-binding site [2]	K(BSA, ibuprofen) [2]	K(BSA, warfarin) [2]	Stern–Volmer constant Ksv (EB–DNA) [3]	relative EB–DNA fluorescence emission intensity (I/Io, %), final [3]	percentage of EB–DNA fluorescence emission quenching (ΔI/I0, %) [3]	quenching constant Kq (EB–DNA) [3]
O=C(O)c1ccccc1Nc1ccc([N+](=O)[O-])cc1 [4′–NO2–fenH, 4′–nitrofenamic acid]	2.91 (±0.06) × 10^5 M^−1	3.22 (±0.12) × 10^5 M^−1	Sudlow’s site I	2.70 (±0.11) × 10^5 M^−1	1.41 (±0.06) × 10^5 M^−1	5.36 (±0.27) × 10^4 M^−1	52.9%	47.1%	2.33 (±0.11) × 10^12 M^−1s^−1
CO.CO.CO.CO.O=C([O-])c1ccccc1Nc1ccc([N+](=O)[O-])cc1.O=C([O-])c1ccccc1Nc1ccc([N+](=O)[O-])cc1.[Co+2] [Complex 1, [Co(4′–NO2–fen)2(MeOH)4]]	1.66 (±0.09) × 10^5 M^−1	1.99 (±0.11) × 10^5 M^−1	Sudlow’s site I	1.38 (±0.08) × 10^5 M^−1	1.06 (±0.04) × 10^5 M^−1	4.99 (±0.14) × 10^4 M^−1	35.4%	64.6%	2.17 (±0.06) × 10^12 M^−1s^−1
O=C([O-])c1ccccc1Nc1ccc([N+](=O)[O-])cc1.O=C([O-])c1ccccc1Nc1ccc([N+](=O)[O-])cc1.[Co+2].c1ccc(Nc2ccccn2)nc1 [Complex 2, [Co(4′–NO2–fen)2(bipyam)]]	2.02 (±0.03) × 10^5 M^−1	2.75 (±0.19) × 10^5 M^−1	Sudlow’s site II	1.42 (±0.09) × 10^5 M^−1	1.85 (±0.06) × 10^5 M^−1	8.91 (±0.21) × 10^4 M^−1	32.6%	67.3%	3.88 (±0.09) × 10^12 M^−1s^−1
O=C([O-])c1ccccc1Nc1ccc([N+](=O)[O-])cc1.O=C([O-])c1ccccc1Nc1ccc([N+](=O)[O-])cc1.[Co+2].c1cnc2c(c1)ccc1cccnc12 [Complex 3, [Co(4′–NO2–fen)2(phen)]]	5.23 (±0.17) × 10^4 M^−1	4.80 (±0.17) × 10^5 M^−1	Sudlow’s site I	1.95 (±0.03) × 10^5 M^−1	1.60 (±0.06) × 10^5 M^−1	7.39 (±0.21) × 10^4 M^−1	26.3%	73.7%	3.21 (±0.09) × 10^12 M^−1s^−1
C[O-].C[O-].Cc1ccc2ccc3ccc(C)nc3c2n1.Cc1ccc2ccc3ccc(C)nc3c2n1.O=C([O-])c1ccccc1Nc1ccc([N+](=O)[O-])cc1.O=C([O-])c1ccccc1Nc1ccc([N+](=O)[O-])cc1.[Co+2].[Co+2] [Complex 4, [Co2(4′–NO2–fen)2(μ–CH3O)2(neoc)2]]	3.04 (±0.15) × 10^5 M^−1	5.00 (±0.18) × 10^5 M^−1	Sudlow’s site I	3.60 (±0.14) × 10^5 M^−1	2.40 (±0.06) × 10^5 M^−1	7.78 (±0.24) × 10^4 M^−1	26.0%	74.0%	3.38 (±0.10) × 10^12 M^−1s^−1
